Experimental findings from patent US20040014734A1, “Farnesoid X-activated receptor agonists” (priority 2002, published 2004) are described below.

T1 sequence (Q62735 whole entry): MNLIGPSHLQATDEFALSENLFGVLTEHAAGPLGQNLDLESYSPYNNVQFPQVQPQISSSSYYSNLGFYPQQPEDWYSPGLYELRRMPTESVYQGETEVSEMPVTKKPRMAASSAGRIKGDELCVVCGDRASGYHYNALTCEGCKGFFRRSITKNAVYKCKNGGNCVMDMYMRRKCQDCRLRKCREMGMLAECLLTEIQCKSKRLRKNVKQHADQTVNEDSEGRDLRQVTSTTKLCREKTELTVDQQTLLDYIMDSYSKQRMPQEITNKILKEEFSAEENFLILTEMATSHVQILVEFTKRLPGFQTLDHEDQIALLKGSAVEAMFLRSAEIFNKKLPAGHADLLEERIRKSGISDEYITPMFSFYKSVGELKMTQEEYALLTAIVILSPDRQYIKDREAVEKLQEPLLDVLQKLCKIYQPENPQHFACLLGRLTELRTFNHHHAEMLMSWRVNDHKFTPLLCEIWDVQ
T1 sequence (P28702 whole entry partner): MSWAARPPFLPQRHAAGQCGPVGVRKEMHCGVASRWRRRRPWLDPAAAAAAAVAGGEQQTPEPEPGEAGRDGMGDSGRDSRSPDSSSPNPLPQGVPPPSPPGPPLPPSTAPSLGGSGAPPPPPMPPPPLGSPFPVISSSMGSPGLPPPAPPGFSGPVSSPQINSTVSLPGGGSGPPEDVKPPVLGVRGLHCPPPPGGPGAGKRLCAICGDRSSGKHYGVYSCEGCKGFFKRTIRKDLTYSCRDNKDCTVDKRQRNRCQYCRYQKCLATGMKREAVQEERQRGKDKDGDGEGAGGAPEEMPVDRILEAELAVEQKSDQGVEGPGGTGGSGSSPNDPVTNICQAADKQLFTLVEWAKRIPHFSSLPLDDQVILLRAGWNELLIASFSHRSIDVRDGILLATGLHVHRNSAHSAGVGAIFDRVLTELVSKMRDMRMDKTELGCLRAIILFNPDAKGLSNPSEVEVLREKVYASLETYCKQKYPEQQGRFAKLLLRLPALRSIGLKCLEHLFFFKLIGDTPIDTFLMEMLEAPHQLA
T1 sequence (Q15596 whole entry partner): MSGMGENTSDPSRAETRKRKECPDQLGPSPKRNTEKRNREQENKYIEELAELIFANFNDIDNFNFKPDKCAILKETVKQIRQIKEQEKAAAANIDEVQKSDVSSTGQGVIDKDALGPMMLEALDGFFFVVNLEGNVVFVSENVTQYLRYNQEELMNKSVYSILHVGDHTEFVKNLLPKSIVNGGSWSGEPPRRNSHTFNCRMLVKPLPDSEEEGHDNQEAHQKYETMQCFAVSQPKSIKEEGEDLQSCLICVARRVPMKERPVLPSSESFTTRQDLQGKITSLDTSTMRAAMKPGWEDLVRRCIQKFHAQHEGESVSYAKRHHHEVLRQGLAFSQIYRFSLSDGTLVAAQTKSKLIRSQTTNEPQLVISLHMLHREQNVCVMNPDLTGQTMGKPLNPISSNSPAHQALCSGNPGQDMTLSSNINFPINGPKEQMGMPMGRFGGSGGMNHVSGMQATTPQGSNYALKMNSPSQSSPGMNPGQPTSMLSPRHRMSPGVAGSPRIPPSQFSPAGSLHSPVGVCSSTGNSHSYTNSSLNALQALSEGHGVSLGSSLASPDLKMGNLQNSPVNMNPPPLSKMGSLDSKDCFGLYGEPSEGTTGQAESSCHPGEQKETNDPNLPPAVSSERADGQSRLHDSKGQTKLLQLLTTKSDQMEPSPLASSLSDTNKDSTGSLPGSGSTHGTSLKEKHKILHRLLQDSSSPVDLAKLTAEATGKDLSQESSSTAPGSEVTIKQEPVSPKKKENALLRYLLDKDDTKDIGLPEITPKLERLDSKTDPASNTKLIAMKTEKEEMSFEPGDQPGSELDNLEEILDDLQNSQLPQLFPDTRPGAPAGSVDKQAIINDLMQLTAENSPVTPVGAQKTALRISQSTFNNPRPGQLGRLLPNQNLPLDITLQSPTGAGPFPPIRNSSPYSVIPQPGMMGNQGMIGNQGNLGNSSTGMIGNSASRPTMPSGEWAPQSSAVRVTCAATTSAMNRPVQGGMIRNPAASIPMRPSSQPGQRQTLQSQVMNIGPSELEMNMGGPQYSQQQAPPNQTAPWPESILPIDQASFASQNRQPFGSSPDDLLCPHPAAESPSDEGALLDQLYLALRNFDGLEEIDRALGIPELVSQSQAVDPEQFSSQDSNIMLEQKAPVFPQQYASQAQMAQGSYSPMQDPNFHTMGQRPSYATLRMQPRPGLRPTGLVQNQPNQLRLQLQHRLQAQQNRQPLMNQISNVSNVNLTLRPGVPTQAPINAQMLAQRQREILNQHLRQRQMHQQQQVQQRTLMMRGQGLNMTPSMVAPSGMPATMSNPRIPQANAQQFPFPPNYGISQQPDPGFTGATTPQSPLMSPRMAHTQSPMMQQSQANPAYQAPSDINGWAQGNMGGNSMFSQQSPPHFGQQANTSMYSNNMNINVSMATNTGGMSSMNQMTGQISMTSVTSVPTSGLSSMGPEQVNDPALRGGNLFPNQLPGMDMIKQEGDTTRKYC

The first assay addresses T1, FXR (Rattus norvegicus, UniProt Q62735).
T1 construct: expressed in transfected cells; host or cells: Human embryonic kidney 293 cells
The experiment in a line: Reporter gene transactivation assay. It counts as cell-based. Particulars: Human embryonic kidney 293 cells transfected with rFXR, hRXRβ, hGrip1 and DR-4 or IR-1 luciferase reporter. The procedure: Human embryonic kidney 293 cells were seeded into 48-well culture plates at 2×10^4 cells per well in a Dulbecco's modified Eagle's medium (DMEM) supplemented with 10% fetal bovine serum. After 24 hours, cells were transfected by a calcium phosphate coprecipitation method with 250 ng of the pGL3/DR-4-luc reporter gene which consists of three copies of AGGTCAagccAGGTCA (DR-4) or pGL3/IR-1-luc which consists of three copies of GGGTCAcTGACCC (IR-1) fused to nucleotides −56 to +109 of the human c-fos promoter in front of the firefly luciferase gene in the plasmid basic pGL3 (Promega, Madison, Wis.), 40 ng pSG5/hRXRβ, 40 ng pR5/rFXR,10 ng pSG5/hGrip1, 0.4 ng CMV/R-luc (transfection normalization reporter, Promega) and 250 ng carrier DNA per well. […] After another 12-24 hours, cells were washed with PBS and refed with DMEM supplemented with 4% delipidated fetal bovine serum. Chemicals dissolved in ethanol were added in duplicate to the medium so that the final concentration of alcohol was 0.2%. After 24-48 hours, cells were harvested and luciferase activity was measured with a commercial kit (Promega Dual luciferase II) on a Monolight luminometer (Becton Dickenson, Mountain View, Calif.). FXR dimerizes with RXR to form an FXR/RXR heterodimer, which binds to both DR-4 response elements and IR-1 response elements in a ligand-dependent manner and transactivates the reporter gene expression.
In general terms: A reporter such as luciferase makes a cellular process visible.
As to `CON(C)C(=O)CC[C@@H](C)[C@H]1CC[C@H]2[C@@H]3CC[C@@H]4CCCC[C@]4(C)[C@H]3CC[C@]12C` [N-methyl-N-methoxy-5β-cholanoic acid-24-amide], the “agonists of FXF (reporter gene transactivation, luciferase activity)” value (shortened to “agonists of FXF”) is recorded as “potent agonists”.

Regarding `CNN(C)C(=O)CC[C@@H](C)[C@H]1CC[C@H]2[C@@H]3CC[C@@H]4CCCC[C@]4(C)[C@H]3CC[C@]12C` [N-methyl-N-methylamino-5β-cholanoic acid-24-amide], the “agonists of FXF” value is reported as “potent agonists”.

Take `C[C@H](CCC(=O)N(C)C)[C@H]1CC[C@H]2[C@@H]3CC[C@@H]4CCCC[C@]4(C)[C@H]3CC[C@]12C` [N,N-dimethyl-5β-cholanoic acid-24-amide]: the “agonists of FXF” value is reported as “potent agonists”.

Consider `CC(CCC(=O)O)C1CCC2C3CC=C4C=CCCC4(C)C3CCC12C` (centres unmarked) [Δ^3,5-cholanoic acid, 4-(10,13-Dimethyl-2,7,8,9,10,11,12,13,14,15,16,17-dodecahydro-1H-cyclopenta[a]phenanthren-17-yl)-pentanoic acid], for which the “agonists of FXF” value is given as “potent agonists”.

In the case of `C[C@H](CCC(=O)NCC(F)(F)F)[C@H]1CC[C@H]2[C@@H]3CC[C@@H]4CCCC[C@]4(C)[C@H]3CC[C@]12C` [N-(2,2,2-trifluoroethyl)-5β-cholanoic acid-24-amide], the “agonists of FXF” value is on record as “potent agonists”.

Regarding `C[C@H](CCC(=O)NCCS(=O)(=O)O)[C@H]1CC[C@H]2[C@@H]3CC[C@@H]4CCCC[C@]4(C)[C@H]3CC[C@]12C` [N-sulfonylethyl-5β-cholanoic acid-24-amide], the “agonists of FXF” value was “potent agonists”.

`C[C@H](CCC(=O)NCCCl)[C@H]1CC[C@H]2[C@@H]3CC[C@@H]4CCCC[C@]4(C)[C@H]3CC[C@]12C` [N-(2-chloroethyl)-5β-cholanoic acid-24-amide]: the “agonists of FXF” value is “potent agonists”.

For `CCOC(=O)CNC(=O)CC[C@@H](C)[C@H]1CC[C@H]2[C@@H]3CC[C@@H]4CCCC[C@]4(C)[C@H]3CC[C@]12C` [N-ethoxycarbonylmethyl-5β-cholanoic acid-24-amide], the “agonists of FXF” value is “potent agonists”.

`C[C@H](CCC(=O)NNC=O)[C@H]1CC[C@H]2[C@@H]3CC[C@@H]4CCCC[C@]4(C)[C@H]3CC[C@]12C` [N-formylamino-5β-cholanoic acid-24-amide]: the “agonists of FXF” value was “potent agonists”.

As to `C[C@H](CCC(=O)NCC(=O)O)[C@H]1CC[C@H]2[C@@H]3CC[C@@H]4CCCC[C@]4(C)[C@H]3CC[C@]12C` [N-carboxymethyl-5β-cholanoic acid-24-amide], the “agonists of FXF” value is recorded as “potent agonists”.

With `CC(CCS(=O)(=O)O)C1CCC2C3CCC4CCCCC4(C)C3CCC12C` (centres unmarked) [cholanosulfonic acid, 3-(10,13-Dimethyl-hexadecahydro-cyclopenta[a]phenanthren-17-yl)-butane-1-sulfonic acid], the “agonists of FXF” value is reported as “potent agonists”.

Regarding `C[C@H](CCC(=O)N(C)CC(=O)O)[C@H]1CC[C@H]2[C@@H]3CC[C@@H]4CCCC[C@]4(C)[C@H]3CC[C@]12C` [cholamide, N-methyl-N-carboxymethyl-5β-cholanoic acid-24-amide], the “agonists of FXF” value is “potent agonists”.

Turning to `CNC(=O)CC[C@@H](C)[C@H]1CC[C@H]2[C@@H]3CC[C@@H]4CCCC[C@]4(C)[C@H]3CC[C@]12C` [N-methyl-5β-cholanoic acid-24-amide], the “agonists of FXF” value is “potent agonists”.

Still in this assay, the particulars now being: relative to GW4064.
With `C[C@H](CCC(=O)N(C)CC(=O)O)[C@H]1CC[C@H]2[C@@H]3CC[C@@H]4CCCC[C@]4(C)[C@H]3CC[C@]12C` [cholamide, N-methyl-N-carboxymethyl-5β-cholanoic acid-24-amide], the “higher efficacy than GW4064, a known non-steroidal FXR agonist” value came out at 200 times.
